Assay results from paper PMC3959589 (Analytical and bioanalytical chemistry, 2014).

Columns and labels:
[1] = molecular target: T1, human serum albumin (HSA) (Homo sapiens, UniProt P02768); assay: biochemical
[2] = molecular target: T1, human serum albumin (HSA); details: dose-response, 500 nM Red Mega 500, 0.2 mg/mL HSA
plasma protein = details: cited from earlier work

T1 sequence (P02768 25-609): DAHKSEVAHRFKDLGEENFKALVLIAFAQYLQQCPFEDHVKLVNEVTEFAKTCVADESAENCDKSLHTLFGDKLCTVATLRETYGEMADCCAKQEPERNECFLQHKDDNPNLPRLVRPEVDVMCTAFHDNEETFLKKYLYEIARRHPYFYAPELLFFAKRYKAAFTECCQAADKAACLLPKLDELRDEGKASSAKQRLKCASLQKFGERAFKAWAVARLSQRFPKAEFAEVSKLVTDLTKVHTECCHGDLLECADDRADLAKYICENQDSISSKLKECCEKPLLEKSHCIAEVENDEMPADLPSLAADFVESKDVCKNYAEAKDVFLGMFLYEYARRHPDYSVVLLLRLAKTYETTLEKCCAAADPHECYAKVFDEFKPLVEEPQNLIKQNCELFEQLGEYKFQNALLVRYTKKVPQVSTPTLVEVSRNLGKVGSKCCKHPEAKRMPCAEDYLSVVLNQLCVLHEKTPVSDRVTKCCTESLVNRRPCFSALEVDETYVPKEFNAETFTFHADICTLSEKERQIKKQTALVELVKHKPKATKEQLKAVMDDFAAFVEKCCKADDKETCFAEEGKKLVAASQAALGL

SMILES | IC50 [1] [µM] | efficacy of inhibition of HSA–Red Mega 500 binding [2] | plasma protein binding class (low / medium / high) (plasma protein)
CC/C(=C(/CC)c1ccc(O)cc1)c1ccc(O)cc1 [diethylstilbestrol] | 4.4 ± 1.9 | weaker efficacy | medium
Cc1c(OCC(F)(F)F)ccnc1C[S+]([O-])c1nc2ccccc2[nH]1 (stereo not drawn) [lansoprazole] | – | – | high
COc1ccc2[nH]c([S+]([O-])Cc3ncc(C)c(OC)c3C)nc2c1 (stereo not drawn) [omeprazole] | – | – | high
CN1C(C(=O)Nc2ccccn2)=C(O)c2ccccc2S1(=O)=O [piroxicam] | – | – | high
